The source of these data is patent publication US11192850B2, “N-aryl oxamic acids” (Purdue Research Foundation, priority 2020, dated 2021).

Structures are written as SMILES. Where two headings read alike, the source gives them in different places.

The IC50 is the concentration needed to halve the response being measured. High values mean a need for much substance, low ones inhibition by little substance. A word on the LogD: it is the decadic logarithm of the distribution of all forms, ionised or not, between an organic phase and buffer at a given pH. A low value points to lower lipophilicity.

One series addresses MKP5 (Homo sapiens (Human), UniProt Q9Y6W6). The experiment in a line: pNPP inhibition assay against MKP5. Format: biochemical. To be noted: pNPP at Km of the PTP.
For another series, the target named is PTP-PEST (Homo sapiens (Human), UniProt Q05209). Description: pNPP inhibition assay against PTP-PEST. Format: biochemical. To be noted: pNPP at Km of the PTP.
Chain of PTP-PEST (Q05209 28-293, species assumed): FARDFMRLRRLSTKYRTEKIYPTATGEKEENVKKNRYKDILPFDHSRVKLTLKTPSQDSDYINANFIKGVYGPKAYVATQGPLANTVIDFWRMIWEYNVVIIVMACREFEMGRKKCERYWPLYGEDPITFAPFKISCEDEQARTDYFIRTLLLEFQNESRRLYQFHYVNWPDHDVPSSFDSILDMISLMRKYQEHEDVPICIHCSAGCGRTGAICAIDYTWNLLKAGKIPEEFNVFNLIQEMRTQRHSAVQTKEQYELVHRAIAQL
The next series deals with LYP (Homo sapiens (Human), UniProt Q9Y2R2). Description: pNPP inhibition assay against LYP. Format: biochemical. To be noted: pNPP at Km of the PTP.
Chain of LYP (Q9Y2R2 24-289, species assumed): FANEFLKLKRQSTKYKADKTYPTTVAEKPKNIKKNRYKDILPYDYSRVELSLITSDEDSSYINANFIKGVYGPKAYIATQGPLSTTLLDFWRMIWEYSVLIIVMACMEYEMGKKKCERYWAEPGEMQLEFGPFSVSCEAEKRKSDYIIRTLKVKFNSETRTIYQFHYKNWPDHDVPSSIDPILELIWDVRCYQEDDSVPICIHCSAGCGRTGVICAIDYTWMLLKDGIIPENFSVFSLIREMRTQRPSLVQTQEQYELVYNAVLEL
A further series has as its target SHP2 (Homo sapiens (Human), UniProt Q06124). The experiment in a line: pNPP inhibition assay against SHP2. Type of series: biochemical.
The next series has as its target PTPγ (Homo sapiens (Human), UniProt P23470). The experiment in a line: pNPP inhibition assay against PTPγ. Format: biochemical. To be noted: pNPP at Km of the PTP.
The target of another series is mPTPA (Mycobacterium tuberculosis (strain ATCC 25618 / H37Rv), UniProt P9WIA1). Description: biochemical.
A further series deals with LMPTP-1 (Homo sapiens (Human), UniProt P24666). Type of series: biochemical.
Chain of LMPTP-1 (P24666 whole entry, looked up): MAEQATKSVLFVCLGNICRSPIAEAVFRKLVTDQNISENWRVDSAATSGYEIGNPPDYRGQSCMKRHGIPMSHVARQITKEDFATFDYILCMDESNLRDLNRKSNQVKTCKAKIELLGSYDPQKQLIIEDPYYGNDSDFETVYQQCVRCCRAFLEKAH
A further series deals with mPTPB (Mycobacterium tuberculosis (strain ATCC 25618 / H37Rv), UniProt I6WXK4). Format: biochemical.
Chain of mPTPB (I6WXK4 whole entry, looked up): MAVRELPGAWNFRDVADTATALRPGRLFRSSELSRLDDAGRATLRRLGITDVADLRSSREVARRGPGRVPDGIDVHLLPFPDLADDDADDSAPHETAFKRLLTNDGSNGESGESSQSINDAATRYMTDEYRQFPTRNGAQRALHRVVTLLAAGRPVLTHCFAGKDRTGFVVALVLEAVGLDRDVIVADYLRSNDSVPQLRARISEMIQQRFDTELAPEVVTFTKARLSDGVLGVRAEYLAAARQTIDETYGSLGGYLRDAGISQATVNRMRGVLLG
The next series concerns the target TC-PTP (Homo sapiens (Human), UniProt P17706). Description: pNPP inhibition assay against TC-PTP. Format: biochemical. To be noted: pNPP at Km of the PTP.
In a further series the target is SHP1 (Homo sapiens (Human), UniProt P29350). Description: pNPP inhibition assay against SHP1. Type of series: biochemical.
Chain of SHP1 (P29350 244-515): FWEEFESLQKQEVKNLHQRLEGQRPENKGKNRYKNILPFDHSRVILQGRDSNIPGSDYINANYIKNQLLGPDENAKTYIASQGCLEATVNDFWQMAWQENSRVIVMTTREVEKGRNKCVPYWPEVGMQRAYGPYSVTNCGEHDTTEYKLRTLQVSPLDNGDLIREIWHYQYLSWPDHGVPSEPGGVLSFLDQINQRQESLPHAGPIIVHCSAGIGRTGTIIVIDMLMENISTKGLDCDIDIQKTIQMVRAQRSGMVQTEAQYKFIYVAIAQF
A further series has as its target PTP1B (Homo sapiens (Human), UniProt P18031). Description: pNPP inhibition assay against PTP1B. Type of series: biochemical.
Series [1] is described as follows: Mouse liver microsomal stability. Format: in vitro ADME. To be noted: for Microsome Stability, % remaining: Mouse, after 60 min at 37° C. From the text:
A sufficient oral dosage must survive first-pass clearance through the liver before reaching its biological target. The majority of drugs/xenobiotics undergo phase I metabolism, mediated by the cytochrome P450 (CYP450) family of heme-thiolate proteins predominantly in the liver. Although mouse liver microsomal (MLM) stability studies are not a perfect substitute for in vivo metabolic clearance studies, but they serve as an initial […] model system that can correlate well with human liver microsomal (HLM) stability and in vivo activity in mice. To this end, compounds 4h, 4k, 4t, 4u, and 4v were allowed to react with mouse liver microsomes and the fraction of remaining parent compound over time was determined. […] Incorporation of fluorine into drug candidates generally improves their potency, bioavailability, and metabolic stability. In addition, fluorinated molecules are in general, nontoxic and mimic the corresponding nonfluorinated analogs in their stereoelectronic properties, so the drug's affinity for the receptor either remains the same or, in some cases increases. […] So, the loss of compounds tested here is attributed only to oxidative Phase I metabolism. The high microsomal stability of these compounds could be exploited pharmacologically.
Mouse (CD-1) pooled liver microsomes purchased from Fisher Scientific, IL, USA (0.5 mg/mL, Corning Gentest 3P, cat#452702), and the assay procedures were followed as previously reported. A solution of mouse liver microsomes and 1 mM of co-factor NADPH in 1 ml of phosphate buffer saline (pH=7.4) was prewarmed to 37° C. in an Eppendorf tube. Then 10 μL of a test solution (10 mM DMSO stock) was added to initiate the reaction. Verapamil-HCl was used as a positive control. […] The incubation mixture was kept at 37° C., and 50 μL aliquots were taken at times of 0, 5, 10, 15, 30 or 60 min. Each of the aliquot was quenched using 200 μL of ice-cold acetonitrile. The mixtures were vigorously vortexed and centrifuged to remove the precipitated protein and the supernatants were analyzed by an Agilent Technologies 6470 series, triple quadrupole LC/MS spectrometer to quantitate the remaining parent compound. The percent of the parent compound remaining was calculated from the formula: % parent compound remaining=(concentration at 60 min/concentration at 0 min)*100

In the next series the target is CDC14A (Homo sapiens (Human), UniProt Q9UNH5). The experiment in a line: pNPP inhibition assay against CDC14A. Format: biochemical. To be noted: pNPP at Km of the PTP.
The next series has as its target VHR (Homo sapiens (Human), UniProt P51452). The experiment in a line: pNPP inhibition assay against VHR. Type of series: biochemical. To be noted: pNPP at Km of the PTP.
In the next series the target is PTPβ (Homo sapiens (Human), UniProt P23467). Description: biochemical. To be noted: pNPP at Km of the PTP.
Another series has as its target HePTP (Homo sapiens (Human), UniProt P35236). Description: pNPP inhibition assay against HePTP. To be noted: pNPP at Km of the PTP. Type of series: biochemical.
In another series the target is PTP-MEG2 (Homo sapiens (Human), UniProt P43378). The experiment in a line: pNPP inhibition assay against PTP-MEG2. Format: biochemical. To be noted: pNPP at Km of the PTP.
Chain of PTP-MEG2 (P43378 303-574): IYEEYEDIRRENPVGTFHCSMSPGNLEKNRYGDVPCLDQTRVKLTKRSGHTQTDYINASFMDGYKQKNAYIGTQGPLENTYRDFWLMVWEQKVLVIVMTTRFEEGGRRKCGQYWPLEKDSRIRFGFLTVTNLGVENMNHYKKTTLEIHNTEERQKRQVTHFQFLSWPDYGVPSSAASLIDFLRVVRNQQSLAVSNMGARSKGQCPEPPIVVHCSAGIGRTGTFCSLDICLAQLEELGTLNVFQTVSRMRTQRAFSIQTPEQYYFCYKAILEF
Series [2] can be described thus: Kinetic solubility in pH 7.4 PBS. Format: physicochemical. To be noted: pH 7.4 PBS buffer.
Procedure: The resulting mixture was stirred at 500 rpm for 90 minutes and then filtered using 0.45 μm PVDF membrane filter. After filtration, the concentration of corresponding compound was determined by HPLC, comparing the AUC obtained with that from a standard solution of the compound. Data represent the mean (t standard deviation, SD) of three separate experiments, performed in triplicate.
A further series concerns the target DEP-1 (Homo sapiens (Human), UniProt Q12913). Description: pNPP inhibition assay against DEP-1. Format: biochemical. To be noted: pNPP at Km of the PTP.
For a further series, the target named is CD45 (Homo sapiens (Human), UniProt P08575). Description: pNPP inhibition assay against CD45. Type of series: biochemical. To be noted: pNPP at Km of the PTP.
The target in the next series is STEP (Homo sapiens (Human), UniProt P54829). Description: pNPP inhibition assay against STEP. To be noted: pNPP at Km of the PTP. Format: biochemical.
Chain of STEP (P54829 300-555, species assumed): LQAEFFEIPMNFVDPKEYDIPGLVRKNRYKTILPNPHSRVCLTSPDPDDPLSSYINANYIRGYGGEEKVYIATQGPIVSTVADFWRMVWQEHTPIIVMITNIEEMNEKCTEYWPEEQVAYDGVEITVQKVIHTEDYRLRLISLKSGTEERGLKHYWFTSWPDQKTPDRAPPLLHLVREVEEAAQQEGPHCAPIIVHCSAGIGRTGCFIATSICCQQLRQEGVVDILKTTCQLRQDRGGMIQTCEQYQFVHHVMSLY
The next series deals with FAP-1 (Homo sapiens (Human), UniProt Q12923). The experiment in a line: pNPP inhibition assay against FAP-1. Format: biochemical. To be noted: pNPP at Km of the PTP.
Chain of FAP-1 (Q12923 2213-2467, species assumed): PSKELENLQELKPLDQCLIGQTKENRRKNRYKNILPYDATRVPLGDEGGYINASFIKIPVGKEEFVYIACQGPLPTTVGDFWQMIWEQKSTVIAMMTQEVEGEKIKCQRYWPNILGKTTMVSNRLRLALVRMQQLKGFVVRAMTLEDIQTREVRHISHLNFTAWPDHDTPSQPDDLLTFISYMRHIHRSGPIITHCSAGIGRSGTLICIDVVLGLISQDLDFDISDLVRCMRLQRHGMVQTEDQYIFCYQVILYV
The target in a further series is PTPα (Homo sapiens (Human), UniProt P18433). Description: pNPP inhibition assay against PTPα. Format: biochemical. To be noted: pNPP at Km of the PTP.
Another series deals with PTPμ (Homo sapiens (Human), UniProt P28827). Description: pNPP inhibition assay against PTPμ. Type of series: biochemical. To be noted: pNPP at Km of the PTP.
Chain of PTPμ (P28827 900-1154): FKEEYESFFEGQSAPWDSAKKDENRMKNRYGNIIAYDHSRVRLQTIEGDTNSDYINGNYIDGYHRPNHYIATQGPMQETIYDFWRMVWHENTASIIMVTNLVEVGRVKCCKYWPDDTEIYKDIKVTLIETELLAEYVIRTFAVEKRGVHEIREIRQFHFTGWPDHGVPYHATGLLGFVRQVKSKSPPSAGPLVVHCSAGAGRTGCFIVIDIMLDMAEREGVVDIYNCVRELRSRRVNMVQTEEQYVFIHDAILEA
In another series the target is Laforin (Homo sapiens (Human), UniProt O95278). The experiment in a line: pNPP inhibition assay against Laforin. Type of series: biochemical. To be noted: pNPP at Km of the PTP.
Chain of Laforin (O95278 156-323, species assumed): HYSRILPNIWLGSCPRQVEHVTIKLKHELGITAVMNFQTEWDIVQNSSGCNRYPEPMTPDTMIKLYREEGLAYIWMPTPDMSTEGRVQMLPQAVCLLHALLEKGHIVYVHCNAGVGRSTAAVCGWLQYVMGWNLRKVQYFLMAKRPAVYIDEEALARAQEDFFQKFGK
Series [3] is described as follows: Log D by shake flask method. To be noted: n-octanol and pH 7.4 PBS. Format: physicochemical.
Procedure: To determine the lipophilicity of our inhibitors, the Log D at pH 7.4 was measured using the shake flask method. […] The tubes were shaken for 8 hours, centrifuged at 10000 rpm for 5 minutes then n-octanol and phosphate buffered saline layers separated. […] The ratios of AUC of the peaks were used to calculate the Log D in accordance with the equation: Log D=Log10(AUC of octanol layer/AUC of phosphate buffered saline layer)
For another series, the target named is MKP3 (Homo sapiens (Human), UniProt Q16828). The experiment in a line: pNPP inhibition assay against MKP3. To be noted: pNPP at Km of the PTP. Type of series: biochemical.
Chain of MKP3 (Q16828 206-349, species assumed): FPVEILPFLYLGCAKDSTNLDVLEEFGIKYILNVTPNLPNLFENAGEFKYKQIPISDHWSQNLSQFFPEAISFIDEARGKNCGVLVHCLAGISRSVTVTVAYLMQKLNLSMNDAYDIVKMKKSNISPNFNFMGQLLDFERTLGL
Series [4] is described as follows: Solubility observed for analogs (qualitative).

Chain of PTP1B (P18031 3-277): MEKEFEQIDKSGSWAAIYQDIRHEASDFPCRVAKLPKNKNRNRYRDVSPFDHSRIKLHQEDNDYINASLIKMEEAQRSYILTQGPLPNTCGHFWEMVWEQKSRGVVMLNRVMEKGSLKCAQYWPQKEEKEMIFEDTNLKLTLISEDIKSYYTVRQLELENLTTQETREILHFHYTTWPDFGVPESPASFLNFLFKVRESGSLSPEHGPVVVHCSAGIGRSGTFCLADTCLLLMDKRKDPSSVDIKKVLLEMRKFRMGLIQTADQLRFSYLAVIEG
Chain of MKP5 (Q9Y6W6 321-464, species assumed): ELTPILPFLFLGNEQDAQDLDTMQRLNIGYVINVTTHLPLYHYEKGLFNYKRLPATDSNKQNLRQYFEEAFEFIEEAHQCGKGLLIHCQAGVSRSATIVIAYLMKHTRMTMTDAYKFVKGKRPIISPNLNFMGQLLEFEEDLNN
Chain of SHP2 (Q06124 247-517): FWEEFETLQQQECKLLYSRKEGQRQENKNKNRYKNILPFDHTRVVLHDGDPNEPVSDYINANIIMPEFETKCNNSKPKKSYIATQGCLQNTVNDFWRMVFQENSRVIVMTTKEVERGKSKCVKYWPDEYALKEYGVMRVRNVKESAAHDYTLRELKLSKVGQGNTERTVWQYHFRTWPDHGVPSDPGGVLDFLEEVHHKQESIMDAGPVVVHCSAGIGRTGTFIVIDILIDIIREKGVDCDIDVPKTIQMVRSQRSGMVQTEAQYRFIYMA
Chain of PTPγ (P23470 763-1445): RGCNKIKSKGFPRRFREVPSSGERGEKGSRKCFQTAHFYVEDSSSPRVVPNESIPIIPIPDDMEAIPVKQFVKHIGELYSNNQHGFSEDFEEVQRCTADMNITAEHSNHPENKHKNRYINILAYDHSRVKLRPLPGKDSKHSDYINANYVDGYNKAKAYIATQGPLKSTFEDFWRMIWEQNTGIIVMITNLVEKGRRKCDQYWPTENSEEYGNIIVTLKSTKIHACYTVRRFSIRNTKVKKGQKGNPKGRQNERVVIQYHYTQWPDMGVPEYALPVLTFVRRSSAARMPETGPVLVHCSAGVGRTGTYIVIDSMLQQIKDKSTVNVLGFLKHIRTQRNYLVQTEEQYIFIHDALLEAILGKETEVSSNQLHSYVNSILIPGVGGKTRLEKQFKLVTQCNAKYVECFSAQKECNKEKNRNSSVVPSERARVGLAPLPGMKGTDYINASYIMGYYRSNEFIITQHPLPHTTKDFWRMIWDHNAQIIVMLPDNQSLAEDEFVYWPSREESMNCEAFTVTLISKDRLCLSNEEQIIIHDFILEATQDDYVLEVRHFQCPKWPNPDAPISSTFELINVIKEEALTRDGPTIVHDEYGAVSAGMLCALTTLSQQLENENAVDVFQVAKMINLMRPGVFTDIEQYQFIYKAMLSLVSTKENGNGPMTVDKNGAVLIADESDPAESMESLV
Chain of TC-PTP (P17706 5-275): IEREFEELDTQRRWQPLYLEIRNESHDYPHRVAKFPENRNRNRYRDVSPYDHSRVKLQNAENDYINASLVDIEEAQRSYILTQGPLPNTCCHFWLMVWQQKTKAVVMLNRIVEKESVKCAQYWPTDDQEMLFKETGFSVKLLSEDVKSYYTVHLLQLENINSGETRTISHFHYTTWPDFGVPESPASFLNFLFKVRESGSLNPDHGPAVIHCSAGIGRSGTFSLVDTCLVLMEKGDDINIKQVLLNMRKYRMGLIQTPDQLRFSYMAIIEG
Chain of HePTP (P35236 97-350): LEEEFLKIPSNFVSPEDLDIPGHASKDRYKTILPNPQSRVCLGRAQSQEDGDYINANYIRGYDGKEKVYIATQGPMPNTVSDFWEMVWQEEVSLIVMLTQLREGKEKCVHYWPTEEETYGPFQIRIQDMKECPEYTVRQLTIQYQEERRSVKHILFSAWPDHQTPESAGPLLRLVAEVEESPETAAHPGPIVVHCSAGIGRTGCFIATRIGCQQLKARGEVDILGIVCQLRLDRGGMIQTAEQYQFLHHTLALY
Chain of DEP-1 (Q12913 1041-1298, species assumed): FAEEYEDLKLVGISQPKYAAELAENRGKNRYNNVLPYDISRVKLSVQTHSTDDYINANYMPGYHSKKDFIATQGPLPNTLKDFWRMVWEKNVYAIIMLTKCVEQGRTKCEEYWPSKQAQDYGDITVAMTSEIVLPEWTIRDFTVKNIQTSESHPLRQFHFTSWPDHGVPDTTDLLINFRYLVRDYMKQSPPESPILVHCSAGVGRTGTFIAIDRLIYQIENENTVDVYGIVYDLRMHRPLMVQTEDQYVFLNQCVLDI

For the compound `CN(C)c1cc(O)c(C(=O)O)cc1C#Cc1cccc(NC(=O)C(=O)O)c1` [Compound 4g, 5-((3-(carboxyformamido)phenyl)ethynyl)-4-(dimethylamino)-2-hydroxybenzoic Acid], the IC50 against MKP5 is more than 50 µM; against PTP-PEST it was more than 50 µM; at LYP it was more than 50 µM; on SHP2 it was 47.5 ± 3.5 µM; against PTPγ, more than 50 µM; against mPTPA, more than 50 µM. Further, the IC50 at LMPTP-1 is 34.5 µM; on mPTPB, 0.16 µM; against TC-PTP, more than 50 µM; at SHP1 it was 38.5 ± 4.2 µM; against PTP1B, 45.1 ± 4.5 µM.

On to `CC(C)(C)c1ccc(C#Cc2ccc(NC(=O)C(=O)O)cc2)cc1` [Compound 4h, 2-((4-((4-(tert-butyl)phenyl)ethynyl)phenyl)amino)-2-oxoacetic Acid], for which the IC50 at SHP2 (pNPP at Km of the PTP) was more than 50 µM; at mPTPB (pNPP assay, pH 7.0, 3.0 mM pNPP), 0.026 ± 0.005 µM; at SHP1 (pNPP at Km of the PTP), more than 50 µM; at PTP1B (pNPP at Km of the PTP) it was more than 50 µM. For the same compound, the “Microsome Stability, % remaining” value in series [1] is recorded as 27 ± 2.4%. In addition, the microsomal stability ranking result in series [1] (mouse liver microsomes, last time point) is listed as “least stable”.

Regarding `O=C(O)C(=O)Nc1ccc(C#Cc2ccc(C(F)(F)F)cc2)cc1` [Compound 4k, 2-oxo-2-((4-((4-(trifluoromethyl)phenyl)ethynyl)phenyl)amino)acetic Acid], the IC50 was more than 30 µM at CDC14A; more than 30 µM against VHR; more than 30 µM against PTPβ; more than 50 µM on HePTP; more than 30 µM on PTP-MEG2; more than 30 µM against MKP5. Moreover, the IC50 on PTP-PEST was more than 30 µM; against LYP, more than 50 µM; at SHP2 (pNPP at Km of the PTP) it was more than 50 µM; against DEP-1, more than 30 µM; at CD45, more than 30 µM; at PTPγ, more than 30 µM. Also, the IC50 against STEP is more than 30 µM; against FAP-1 it was more than 30 µM; against PTPα it was more than 30 µM; on mPTPA, more than 50 µM; on PTPμ, more than 30 µM; at Laforin, more than 30 µM. For the same compound, the IC50 was more than 50 µM against TC-PTP, more than 50 µM at SHP1 (pNPP at Km of the PTP), more than 50 µM at PTP1B (pNPP at Km of the PTP) and more than 30 µM against MKP3. Further, in series [2], the “Aq. Sol (μM), kinetic solubility” value stood at 22.4 µM. For the same compound, in [1], the “Microsome Stability, % remaining” value is 38 ± 1.6%. Moreover, the LogD in series [3] is listed as 1.97.

For `O=C(O)C(=O)Nc1ccc(C#Cc2ccc3ccccc3c2)cc1` [Compound 4q, 2-((4-(naphthalen-2-ylethynyl)phenyl)amino)-2-oxoacetic Acid], the IC50 against SHP2 (pNPP at Km of the PTP), on SHP1 (pNPP at Km of the PTP) and at PTP1B (pNPP at Km of the PTP) was more than 50 µM each time. Besides, in series [4], the “solubility (in words)” value is listed as “poor solubility”.

For the compound `O=C(O)C(=O)Nc1ccc(C#Cc2ccc(OCc3ccccc3)cc2)cc1` [Compound 4r, 2-((4-((4-(benzyloxy)phenyl)ethynyl)phenyl)amino)-2-oxoacetic Acid], the IC50 against SHP2 (pNPP at Km of the PTP) was determined as 15.3 ± 2.1 µM; against SHP1 (pNPP at Km of the PTP), 16.8 ± 3.3 µM; on PTP1B (pNPP at Km of the PTP) it was 38.9 ± 5 µM. The “solubility (in words)” value in series [4] is “poor solubility”.

Turning to `O=C(O)C(=O)Nc1ccc(C#Cc2ccc(C(F)(F)F)cc2Cl)cc1` [Compound 4t, 2-((4-((2-chloro-4-(trifluoromethyl)phenyl)ethynyl)phenyl)amino)-2-oxoacetic Acid], the IC50 against MKP5, against PTP-PEST, against LYP, against SHP2 (pNPP at Km of the PTP), against PTPγ and against mPTPA was more than 30 µM in each case. Also, the IC50 against TC-PTP, against SHP1 (pNPP at Km of the PTP) and against PTP1B (pNPP at Km of the PTP) was more than 30 µM in each case. Besides, the “Microsome Stability, % remaining” value in series [1] was determined as 56 ± 1.5%.

In the case of `O=C(O)C(=O)Nc1ccc(C#Cc2ccc(C(F)(F)F)cc2Br)cc1` [Compound 4u, 2-((4-((2-bromo-4-(trifluoromethyl)phenyl)ethynyl)phenyl)amino)-2-oxoacetic Acid], the IC50 on SHP2 (pNPP at Km of the PTP) came out at 15.2 ± 3.4 µM; against SHP1 (pNPP at Km of the PTP), 33.8 ± 6.8 µM; at PTP1B (pNPP at Km of the PTP), 16.4 ± 2.9 µM. Also, in [1], the “Microsome Stability, % remaining” value amounted to 60 ± 3.8%.

On to `O=C(O)C(=O)Nc1ccc(C#Cc2ccc(C(F)(F)F)cc2F)cc1` [Compound 4v, 2-((4-((2-fluoro-4-(trifluoromethyl)phenyl)ethynyl)phenyl)amino)-2-oxoacetic Acid], for which the IC50 at SHP2 (pNPP at Km of the PTP), against SHP1 (pNPP at Km of the PTP) and against PTP1B (pNPP at Km of the PTP) was more than 30 µM throughout. The “Microsome Stability, % remaining” value in series [1] worked out at 72 ± 2.8%.
